The record followed here is patent US8017315B2, “Mitochondrial localization of MUC1” (Dana Farber Cancer Institute, Inc., priority 2005, dated 2011).

For assay [1], the system named is localization of MUC1-C to mitochondria. In words: Immunoblot of purified mitochondria for MUC1 targeting. The assay is classed as cell-based, Human. The conditions noted are these: HCT116/MUC1 cells. As for the experimental part:
(§1) Cell culture. Human HCT116/vector, HCT116/MUC1, HCT116/MUC1(Y46F) (Ren et al. (2004) Cancer Cell 5:163-175) and HCT116/MUC1-CD (Huang et al. (2003) Cancer Biol. Ther. 2:702-706) cells were cultured in Dulbecco's Modified Eagle Medium/F12 with 10% heat-inactivated fetal bovine serum (HI-FBS), 100 units/ml penicillin, […], and 2 mM L-glutamine. Human HeLa cervical carcinoma, 293 embryonic kidney and MCF-7 breast cancer cells were grown in Dulbecco's Modified Eagle Medium containing 10% HI-FBS, antibiotics and L-glutamine. Human ZR-75-1 breast cancer cells were cultured in RPMI1640 medium containing 10% HI-FBS, antibiotics and L-glutamine. Cells were grown to 60% confluence and then maintained overnight in medium with 0.1% serum before treatment with heregulin (HRG; 20 ng/ml; Calbiochem-Novabiochem, LaJolla, Calif.).
(§2) Immunoprecipitation and immunoblotting. […] Reactivity was detected with horseradish peroxidase-conjugated secondary antibodies and chemiluminescence (PerkinElmer Life Sciences, Boston, Mass.). Intensity of the signals was determined by densitometric scanning. Statistical significance was determined by the Student's t-test. […]

Assay [2] concerns binding of MUC1 and HSP90. The assay is described as follows: MUC1-HSP90 co-immunoprecipitation and immunoblot in cells. Type of assay: cell-based, Human. As for the experimental part:
Cell culture. […] Human ZR-75-1 breast cancer cells were cultured in RPMI1640 medium containing 10% HI-FBS, antibiotics and L-glutamine. Cells were grown to 60% confluence and then maintained overnight in medium with 0.1% serum before treatment with heregulin (HRG; 20 ng/ml; Calbiochem-Novabiochem, LaJolla, Calif.).
Immunoprecipitation and immunoblotting. […] Lysates not subjected to immunoprecipitation were immunoblotted with anti-MUC1-C, anti-HSP60 (Stressgen Biotechnologies, Victoria, BC, Canada), anti-PDGFR (Santa Cruz Biotechnology), anti-BAP31 (Abcam, Cambridge, Mass.), anti-PCNA (Calbiochem-Novabiochem), anti-IkBa (Santa Cruz Biotechnology), anti-calreticulin (Stressgen Biotechnologies), anti-Tom20 (BD Biosciences), anti-Tim23 (BD Biosciences), anti-Tim44 (BD Biosciences) or anti-β-actin (Sigma-Aldrich). Reactivity was detected with horseradish peroxidase-conjugated secondary antibodies and chemiluminescence (PerkinElmer Life Sciences, Boston, Mass.). Intensity of the signals was determined by densitometric scanning. Statistical significance was determined by the Student's t-test.
Subcellular fractionation. […] SM buffer ([…]) was added to one aliquot, and hypotonic buffer (10 mM MOPS-KOH, pH 7.2; […]) was added to the other aliquot. The samples were incubated for 15 minutes on ice and then left untreated or digested with […] trypsin (Sigma-Aldrich) for 15 minutes at 4° C. In other experiments, purified mitochondria in suspension buffer (5 mM HEPES, pH 7.4, 210 mM mannitol, 70 mM sucrose, 100 mM KCl, and 1 mM EGTA) were treated with 0.5% or 1% digitonin (Sigma-Aldrich) for 15 minutes at 4° C. Alternatively, the mitochondria were incubated with 0.5% digitonin for 1 minute at 4° C., diluted with suspension buffer, and then treated with […] trypsin for 15 minutes at 4° C.

Assay [3] has as its target c-Src (Homo sapiens, UniProt P12931). In words: c-Src activation (autophosphorylation), anti-c-Src immunoprecipitation and immunoblot. Type of assay: cell-based. The conditions noted are these: HCT116/MUC1 cells. As for the experimental part: as §1
Immunoprecipitation and immunoblotting. […] Reactivity was detected with horseradish peroxidase-conjugated secondary antibodies and chemiluminescence (PerkinElmer Life Sciences, Boston, Mass.). Intensity of the signals was determined by densitometric scanning. Statistical significance was determined by the Student's t-test.

For assay [4], the target named is HSP70 (endogenous, in lysates of human cells) (human) (UniProt P0DMV8). In words: anti-MUC1-N immunoprecipitation from HCT116/MUC1 lysates, immunoblot, scanning densitometry.
The subject of assay [5] is purified recombinant human HSP90. The assay is described as follows: GST pull-down binding study with recombinant HSP90. The conditions noted are these: for binding to HSP90 after incubation with c-Src and ATP: GST fusion proteins incubated with c-Src and ATP 20 minutes at 30° C., then HSP90 1 hour at 4° C. As for the experimental part: (§3) Binding Studies. Sequences encoding MUC1-CD, MUC1-CD(1-45), or MUC1-CD(46-72) were amplified by PCR and cloned into the pGEX-4T vector (Amersham Biosciences, Piscataway, N.J.). Purified GST-MUC1-CD fusion proteins bound to glutathione beads were incubated with purified recombinant human HSP70 or HSP90 (Stressgen Biotechnologies) for 1 hour at 4° C. In other experiments, the purified GST fusion proteins bound to glutathione beads were incubated with or without 50 ng c-Src (Upstate Biotechnology) in the presence of […] for 20 minutes at 30° C. HSP90 was then added for 1 hour at 4° C. Precipitated proteins were subjected to immunoblot analysis with anti-HSP70 or anti-HSP90.

For assay [6], the target named is T1, purified recombinant human HSP70 (Homo sapiens, UniProt P0DMV8).
T1 construct: purchased Stressgen Biotechnologies
T1 sequence (P0DMV8 2-641 limits assumed): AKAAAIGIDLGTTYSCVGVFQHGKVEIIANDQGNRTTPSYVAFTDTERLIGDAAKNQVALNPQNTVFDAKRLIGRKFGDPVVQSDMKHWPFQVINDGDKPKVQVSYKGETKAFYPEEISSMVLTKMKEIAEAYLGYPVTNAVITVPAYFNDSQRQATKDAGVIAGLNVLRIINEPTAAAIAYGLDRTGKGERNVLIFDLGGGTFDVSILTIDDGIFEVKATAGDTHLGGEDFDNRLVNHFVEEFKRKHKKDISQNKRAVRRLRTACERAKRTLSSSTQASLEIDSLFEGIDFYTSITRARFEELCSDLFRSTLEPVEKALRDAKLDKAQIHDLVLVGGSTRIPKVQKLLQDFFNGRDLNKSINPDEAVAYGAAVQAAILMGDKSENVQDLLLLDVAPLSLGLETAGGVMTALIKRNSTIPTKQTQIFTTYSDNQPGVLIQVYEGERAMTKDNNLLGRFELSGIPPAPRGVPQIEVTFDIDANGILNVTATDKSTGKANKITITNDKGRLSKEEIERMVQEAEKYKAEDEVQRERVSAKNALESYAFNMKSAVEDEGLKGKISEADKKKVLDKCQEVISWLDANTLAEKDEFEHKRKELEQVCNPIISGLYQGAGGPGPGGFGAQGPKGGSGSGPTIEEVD
The assay is described as follows: GST pull-down binding study with recombinant HSP70. The conditions noted are these: GST fusion proteins on glutathione beads, 1 hour at 4° C., no c-Src. As for the experimental part:
as §3

The subject of assay [7] is cytosolic MUC1-C levels. The assay is described as follows: Immunoblot of cytosolic fractions for MUC1-C. The assay is classed as cell-based, Human. The conditions noted are these: cytosolic fraction of HCT116/MUC1 cells; HRG 10 minutes. As for the experimental part: as §1, §2
The test system of assay [8] is binding of MUC1 and HSP70. The assay is described as follows: MUC1-HSP70 co-immunoprecipitation and immunoblot in cells. The assay is classed as cell-based, Human. The conditions noted are these: HRG 10 minutes. As for the experimental part:
as §1
Immunoprecipitation and immunoblotting. Equal amounts of protein from cell lysates were incubated with anti-MUC1-N (antibody DF3) (Kufe et al. (1984) Hybridoma 3:223-232), anti-Flag (Sigma-Aldrich, St. Louis, Mo.), anti-c-Src (Upstate Biotechnology, Lake Placid, N.Y.), anti-HSP90 (BD Biosciences PharMingen, San Diego, Calif.) or normal mouse IgG (Santa Cruz Biotechnology, Santa Cruz, Calif.) for 2 hours at 4° C. Immune complexes were prepared as described (Li et al. (1998) Mol. Cell. Biol. 18:7216-7224) and subjected to immunoblot analysis with anti-HSP70, anti-HSP90, anti-MUC1-N, anti-MUC1-C (Ab5; Neomarkers, Fremont, Calif.), anti-phospho-c-Src(Tyr416) (Cell Signaling Technology, Beverly, Mass.) or anti-c-Src. […] Reactivity was detected with horseradish peroxidase-conjugated secondary antibodies and chemiluminescence (PerkinElmer Life Sciences, Boston, Mass.). Intensity of the signals was determined by densitometric scanning. Statistical significance was determined by the Student's t-test.

Assay [9] deals with T2, purified recombinant human HSP90 (human, UniProt P08238 1-724, limits assumed).
T2 construct: Bought (Stressgen Biotechnologies); also called recombinant HSP90
T2 sequence (P08238 whole entry T147R/R177M): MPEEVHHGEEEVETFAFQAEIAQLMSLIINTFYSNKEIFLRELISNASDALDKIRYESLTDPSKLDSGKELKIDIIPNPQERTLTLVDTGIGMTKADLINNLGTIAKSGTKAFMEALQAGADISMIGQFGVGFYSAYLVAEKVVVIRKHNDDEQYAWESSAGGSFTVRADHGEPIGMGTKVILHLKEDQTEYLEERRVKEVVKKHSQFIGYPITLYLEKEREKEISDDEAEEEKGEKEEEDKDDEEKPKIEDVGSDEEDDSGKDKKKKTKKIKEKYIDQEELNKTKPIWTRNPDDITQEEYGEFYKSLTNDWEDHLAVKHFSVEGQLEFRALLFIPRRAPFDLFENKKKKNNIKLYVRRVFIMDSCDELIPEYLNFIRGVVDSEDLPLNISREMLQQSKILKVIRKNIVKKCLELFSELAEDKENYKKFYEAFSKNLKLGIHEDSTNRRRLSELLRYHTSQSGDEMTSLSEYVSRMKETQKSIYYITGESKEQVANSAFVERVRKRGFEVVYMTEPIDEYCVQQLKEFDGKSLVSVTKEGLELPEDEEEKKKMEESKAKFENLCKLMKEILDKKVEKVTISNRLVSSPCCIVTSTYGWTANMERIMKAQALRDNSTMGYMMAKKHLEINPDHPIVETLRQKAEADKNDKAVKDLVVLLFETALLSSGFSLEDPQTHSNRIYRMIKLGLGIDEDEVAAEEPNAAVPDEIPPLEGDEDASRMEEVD
The assay is described as follows: GST pull-down with recombinant HSP90 after incubation with c-Src and ATP, anti-HSP90 immunoblot.

Ends that are not written are not given here.

In the case of `CC(C)(C)n1nc(-c2ccc(Cl)cc2)c2c(N)ncnc21` [PP2, reference compound], the “HRG-induced targeting of MUC1 to mitochondria in presence of inhibitor” value in assay [1] (PP2 or GA for 1 hour, then HRG) is recorded as “attenuated”. Further, the “HRG-induced binding of MUC1 and HSP90 in presence of inhibitor” value in assay [2] (HCT116/MUC1 cells, PP2 10 μM or GA 1 μM for 1 hour, then HRG, anti-MUC1-N precipitates) was “attenuated this response”. Besides, the “HRG-induced c-Src activation” value in assay [3] (PP2 10 μM for 1 hour, then HRG 20 ng/ml 10 minutes) is on record as “blocked HRG-induced c-Src activation”.

Turning to “MUC1 (human, full length, expressed in cells) (from UniProt P15941 24-1255)”, the percent of the total HSP70 pool associated with MUC1 in assay [4] was 0.6%.

Take “MUC1-CD(1-45): GST fusion deletion mutant, amino acids 1-45 of the MUC1 cytoplasmic domain (CQCRRKNYGQLDIFPARDTYHPMSEYPTYHTHGRYVPPSSTDRSP; not fully specified; cysteine pairing not given here; also: fused to GST)”: in assay [5], the “binding to HSP90 after incubation with c-Src and ATP” value (from here on “binding to HSP90 after incubation”) is “no detectable binding of HSP90”.

For “MUC1-CD(46-72): GST fusion of amino acids 46-72 (YEKVSAGNGGSSLSYTNPAVAATSANL; SEQ ID NO:2) of the human MUC1 CD (not fully specified; also: fused to GST)”, in [5], the “binding to HSP90 after incubation” value is on record as “no detectable binding of HSP90”. In assay [6], the “binding to HSP70” value is on record as “binding to HSP70 was detected”.

In the case of “MUC1-CD: GST fusion of the 72 amino acid MUC1 cytoplasmic domain (SEQ ID NO:1)”, the “binding to HSP90” value in assay [5] (GST fusion protein on glutathione beads, 1 hour at 4° C., no c-Src) is reported as “but not HSP90”. For the same molecule, the “binding to HSP90 after incubation” value in assay [5] is “c-Src induced binding of MUC1-CD to HSP90”. Also, in assay [6], the “binding to HSP70” value is given as “binds to HSP70”.

In the case of heregulin [HRG], the “localization of MUC1-C to mitochondria on HRG stimulation” value in assay [1] (HRG 10 minutes) was “induces localization of MUC1-C, and not MUC1-N, to mitochondria”. Also, the “cytosolic MUC1-C levels” value in assay [7] is given as “increase in cytosolic MUC1-C levels”. Moreover, in assay [8] (HCT116/MUC1-CD (Flag-MUC1-CD) cells), the “binding of MUC1-CD to HSP70 on HRG stimulation” value is reported as “little effect on binding of MUC1-CD to HSP70”. In addition, the “binding of endogenous MUC1 and HSP70 on HRG stimulation” value in [8] (MCF-7 breast cancer cells) is “little if any effect on this interaction”; in assay [8] (ZR-75-1 breast cancer cells) it was “no apparent effect on the constitutive interaction between MUC1 and HSP70”. In addition, the “binding of MUC1-CD to HSP90 on HRG stimulation” value in assay [2] (HCT116/MUC1-CD (Flag-MUC1-CD) cells, HRG 10 minutes) is “stimulated binding of MUC1-CD to HSP90”. In assay [2] (HCT116/MUC1 cells, HRG 20 ng/ml 10 minutes), the “binding of MUC1 and HSP90 on HRG stimulation” value is “increase in binding of MUC1 and HSP90”. For the same molecule, the “binding of endogenous MUC1 and HSP90 on HRG stimulation” value was “increased binding of MUC1 and HSP90” in assay [2] (MCF-7 breast cancer cells, HRG 10 minutes); “increased binding of MUC1 and HSP90” in assay [2] (ZR-75-1 breast cancer cells, HRG 10 minutes). Further, the “binding of cytosolic MUC1-C and HSP90” value in assay [2] (cytosolic fraction of HCT116/MUC1 cells, HRG 10 minutes, anti-HSP90 precipitates) is “increases binding of cytosolic MUC1-C and HSP90”. Besides, the “binding of MUC1 and HSP90 at the cell membrane” value in [2] (purified cell membranes of HCT116/MUC1 cells, HRG 10 minutes) is “stimulates binding of MUC1 and HSP90 at the cell membrane”. For the same molecule, the “c-Src activation as determined by autophosphorylation” value in assay [3] (HRG 20 ng/ml 10 minutes) was “activated c-Src”.

B1: GST-MUC1-CD(1-45) (other)
chain: CQCRRKNYGQLDIFPARDTYHPMSEYPTYHTHGRYVPPSSTDRSP
modifications: not fully specified; cysteine pairing not given here; also: N-terminal GST fusion (pGEX-4T), sequence not given here
notes: Deletion mutant of MUC1-CD on glutathione beads; it lacks Y-46; not shown: glutathione S-transferase (GST) tag encoded by the pGEX-4T vector
For B1, in assay [9], the binding result is listed as “no binding”.
